This experiment has as its system A/WSN/33 H1N1 virus. Format: cell-based, Influenza A virus.

Ends that are not written are not given here.

Regarding RRKKWLVFFVIYFFR [FP4, RRKKWLVFFVIYFFR], the knockdown is 100%.

(Values after patent US20130205416A1 (priority 2010, published 2013).)
